Molecules are shown by their SMILES.

In general, IC50 refers to the concentration that gives 50% inhibition. The low end stands for inhibition by little substance, the high end for a need for much substance.

The experiment addresses T1, Chymase (Homo sapiens, UniProt P23946).
T1 sequence (P23946 whole entry): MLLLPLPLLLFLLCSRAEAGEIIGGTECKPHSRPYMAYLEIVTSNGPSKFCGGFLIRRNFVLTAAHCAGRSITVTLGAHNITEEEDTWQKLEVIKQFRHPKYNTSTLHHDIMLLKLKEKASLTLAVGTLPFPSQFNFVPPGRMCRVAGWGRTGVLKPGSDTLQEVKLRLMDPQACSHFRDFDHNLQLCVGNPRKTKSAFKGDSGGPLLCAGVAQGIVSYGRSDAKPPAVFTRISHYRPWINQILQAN
The experiment can be described thus: Enzyme Inhibition Assay. The text has this:
Enzyme inhibitory activity using recombinant human chymase.
In turn, `Cc1ccc(S(=O)(=O)n2c(O)c3n(c2=O)-c2ccccc2C3)cc1` [Tetrahydroisoquinoline hydantoin derivative, 3a] had an IC50 of 172 µM.

`Cc1ccc(S(=O)(=O)n2c(O)c3n(c2=O)-c2ccccc2C3)cc1C` [Tetrahydroisoquinoline hydantoin derivative, 3b] registered an IC50 of 206 µM.

`O=c1n2c(c(O)n1S(=O)(=O)c1ccc(Cl)c(Cl)c1)Cc1ccccc1-2` [Tetrahydroisoquinoline hydantoin derivative, 3c] showed a half-inhibitory concentration (IC50) of 374 µM.

Take `O=c1n2c(c(O)n1S(=O)(=O)c1ccc3ccccc3c1)Cc1ccccc1-2` [Tetrahydroisoquinoline hydantoin derivative, 3d]: the IC50 amounted to 86.8 µM.

In turn, `Cc1ccc(S(=O)(=O)N2C(=O)[C@@H]3Cc4ccccc4CN3C2=O)cc1` [Tetrahydroisoquinoline hydantoin derivative, 5a] gave an IC50 of 49 µM.

Consider `Cc1ccc(S(=O)(=O)n2c(O)c3n(c2=O)Cc2ccccc2C3)cc1C` [Tetrahydroisoquinoline hydantoin derivative, 5b], for which the IC50 stood at 42.8 µM.

With `O=c1n2c(c(O)n1S(=O)(=O)c1ccc3ccccc3c1)Cc1ccccc1C2` [Tetrahydroisoquinoline hydantoin derivative, 5d], the IC50 was 17.5 µM.

These data come from BindingDB's records for doi:10.1080/14756360310001650200 (Universit&Eacute, 2004).
